Where no end group is shown, it is not given here.
System: EpCAM
Experiment: Spot phage ELISA, EpCAM
Format: binding, human
Settings: spot phage ELISA signal-to-noise on EpCAM

Substance	S/N
CKQDSDCLLVCLGPNGFCG (disulfide (positions not given here)) [EpCAM EET I-II 28]	18
GCFRHYVRCKQDSDCLAGCVCWFDWSCG (disulfide (positions not given here)) [EpCAM EET I-II 13]	20.8
GCHRWGILCKQDSDCLAGCVCWQQGQCG (disulfide (positions not given here)) [EpCAM EET I-II 35]	15
GCIKNNLRCKQDSDCLAGCVCWYDAACG (disulfide (positions not given here)) [EpCAM EET I-II 32]	16.9
GCKNDKIRCKQDSDCLAGCVCWEDPSCG (disulfide (positions not given here)) [EpCAM EET I-II 22]	18.9
GCMQWYIWCKQDSDCLAGCLYRSLPLD (disulfide (positions not given here)) [EpCAM EET I-II 9]	21.9
GCPRILMRCKQDSDCEAICG (disulfide (positions not given here)) [EpCAM EET I-II 8]	21.9
GCPRILMRCKQDSDCHAFCG (disulfide (positions not given here)) [EpCAM EET I-II 30]	17.5
GCPRILMRCKQDSDCHPVCG (disulfide (positions not given here)) [EpCAM EET I-II 20]	19.5
GCPRILMRCKQDSDCHWFCG (disulfide (positions not given here)) [EpCAM EET I-II 15]	20.7
GCPRILMRCKQDSDCHWVCG (disulfide (positions not given here)) [EpCAM EET I-II 39]	6.6
GCPRILMRCKQDSDCLAGCGLSSGLVVW (disulfide (positions not given here)) [EpCAM EET I-II 1]	24
GCPRILMRCKQDSDCLAGCVCENGIMCG (disulfide (positions not given here)) [EpCAM EET I-II 25]	18.6
GCPRILMRCKQDSDCLAGCVCPGNILCG (disulfide (positions not given here)) [EpCAM EET I-II 29]	17.9
GCPRILMRCKQDSDCLAGCVCWPGWPCG (disulfide (positions not given here)) [EpCAM EET I-II 7]	22
GCPRILMRCKQDSDCLAGCVCWPGWPCG (disulfide (positions not given here)) [EpCAM EET I-II 19]	19.6
GCPRILMRCKQDSDCLAGCVLNGLVSWYT (disulfide (positions not given here)) [EpCAM EET I-II 38]	7.1
GCPRILMRCKQDSDCLALCCNERNICG (disulfide (positions not given here)) [EpCAM EET I-II 18]	19.7
GCPRILMRCKQDSDCLCGCV (disulfide (positions not given here)) [EpCAM EET I-II 11]	21.4
GCPRILMRCKQDSDCLPVCG (disulfide (positions not given here)) [EpCAM EET I-II 17]	19.8
GCPRILMRCKQDSDCMPVCG (disulfide (positions not given here)) [EpCAM EET I-II 4]	23
GCPRILMRCKQDSDCQAFCG (disulfide (positions not given here)) [EpCAM EET I-II 23]	18.7

Substance	S/N
GCPRILMRCKQDSDCQAVCG (disulfide (positions not given here)) [EpCAM EET I-II 27]	18.1
GCPRILMRCKQDSDCQLVCLFPGLLVG (disulfide (positions not given here)) [EpCAM EET I-II 36]	14.3
GCPRILMRCKQDSDCQPFCG (disulfide (positions not given here)) [EpCAM EET I-II 6]	22.2
GCPRILMRCKQDSDCQPICG (disulfide (positions not given here)) [EpCAM EET I-II 21]	19.1
GCPRILMRCKQDSDCQPVCG (disulfide (positions not given here)) [EpCAM EET I-II 5]	22.8
GCPRILMRCKQDSDCQPVCG (disulfide (positions not given here)) [EpCAM EET I-II 10]	21.9
GCPRILMRCKQDSDCQWFCG (disulfide (positions not given here)) [EpCAM EET I-II 12]	20.9
GCPRILMRCKQDSDCRPVCG (disulfide (positions not given here)) [EpCAM EET I-II 34]	15.7
GCPRILMRCKQDSDLSSWLCLCCYDSVC (disulfide (positions not given here)) [EpCAM EET I-II 37]	9.5
GCPRILMRCKQDSELSSWLCLCCSGLVC (disulfide (positions not given here)) [EpCAM EET I-II 14]	20.8
GCPRILMRCKQDSELSSWLCLCCSGSLC (disulfide (positions not given here)) [EpCAM EET I-II 26]	18.3
GCPRILMRCKQDSGLSSWLCLCCSASVC (disulfide (positions not given here)) [EpCAM EET I-II 16]	20.6
GCPRSHVRVFFSCKQDSDCLAGCVCFQVVC (disulfide (positions not given here)) [EpCAM EET I-II 31]	17.4
GCRARPLVCKQDSDCLAGPNGFCG (disulfide (positions not given here)) [EpCAM EET I-II 24]	18.6
GCRNTMVRCKQDSDCLAGCVCYFDPSCG (disulfide (positions not given here)) [EpCAM EET I-II 33]	15.8
GCRRMGVRCKQDSDCLAGCVCWHDPQCG (disulfide (positions not given here)) [EpCAM EET I-II 3]	23
GCSFPLIRCKQDSDCQLVVLWSKRFCG (disulfide (positions not given here)) [EpCAM EET I-II 2]	23.6
GPTQSHYGQCGGAGYVGTIKCSGTTCQYVLKPQSQCLPGAS (disulfide (positions not given here)) [EpCAM CBD 54]	9.4
GPTQSHYGQCGGDGYHGAIHCSGTTCQYVMMNRSQCLPGAS (disulfide (positions not given here)) [EpCAM CBD 59]	8.9
GPTQSHYGQCGGDGYTGMIRCSGTTCQFVAKKHSQCLPGAS (disulfide (positions not given here)) [EpCAM CBD 40]	11.8
GPTQSHYGQCGGDGYVGAILCSGTTCQHVSVFPSQCLPGAS (disulfide (positions not given here)) [EpCAM CBD 56]	9.3
GPTQSHYGQCGGEGYKGAIVCSGTTCQQTKLQGSQCLPGAS (disulfide (positions not given here)) [EpCAM CBD 75]	7.7

Substance	S/N
GPTQSHYGQCGGEGYLGALRCSGTTCQYTQIKPSQCLPGAS (disulfide (positions not given here)) [EpCAM CBD 8]	21.8
GPTQSHYGQCGGFGYHGYIVCSGTTCQSRQYDNSQCLPGAS (disulfide (positions not given here)) [EpCAM CBD 21]	17.2
GPTQSHYGQCGGFGYIGVVRCSGTTCQPHQYFRSQCLPGAS (disulfide (positions not given here)) [EpCAM CBD 32]	15.1
GPTQSHYGQCGGFGYMGVMVCSGTTCQWIIRPFSQCLPGAS (disulfide (positions not given here)) [EpCAM CBD 25]	16.9
GPTQSHYGQCGGFGYQGAVVCSGTTCQFTHLGHSQCLPGAS (disulfide (positions not given here)) [EpCAM CBD 88]	5.9
GPTQSHYGQCGGFGYTGAIGCSGTTCQHVKYMRSQCLPGAS (disulfide (positions not given here)) [EpCAM CBD 7]	22.6
GPTQSHYGQCGGGGYHGIICSGTTCQSREVVRSQCLPGAS (disulfide (positions not given here)) [EpCAM CBD 84]	6.7
GPTQSHYGQCGGGGYIGAMPCSGTTCQPVRIP*SQCLPGAS (disulfide) [EpCAM CBD 26]	16.6
GPTQSHYGQCGGGGYPGAIMCSGTTCQFVMAHKSQCLPGAS (disulfide (positions not given here)) [EpCAM CBD 77]	7.5
GPTQSHYGQCGGGGYRGVVCSGTTCQPFFVFGSQCLPGAS (disulfide (positions not given here)) [EpCAM CBD 22]	17.1
GPTQSHYGQCGGGGYYGAISCSGTTCQPVRLIRSQCLPGAS (disulfide (positions not given here)) [EpCAM CBD 37]	13.0
GPTQSHYGQCGGHGYHGWAICSGTTCQERIRHLSQCLPGAS (disulfide (positions not given here)) [EpCAM CBD 41]	11.6
GPTQSHYGQCGGHGYMGSIKCSGTTCQYVEIVPSQCLPGAS (disulfide (positions not given here)) [EpCAM CBD 66]	8.6
GPTQSHYGQCGGHGYQGIMRCSGTTCQQVYMRSSQCLPGAS (disulfide (positions not given here)) [EpCAM CBD 34]	15.0
GPTQSHYGQCGGHGYVGMIACSGTTCQYLQKVPSQCLPGAS (disulfide (positions not given here)) [EpCAM CBD 13]	19.5
GPTQSHYGQCGGIGYMGAIQCSGTTCQPIFLRNSQCLPGAS (disulfide (positions not given here)) [EpCAM CBD 6]	22.6
GPTQSHYGQCGGKGYFGAIVCSGTTCQSTQKYASQCLPGAS (disulfide (positions not given here)) [EpCAM CBD 62]	8.8
GPTQSHYGQCGGKGYFGIRCSGTTCQMVTYKPSQCLPGAS (disulfide (positions not given here)) [EpCAM CBD 33]	15.1
GPTQSHYGQCGGKGYHGFIRCSGTTCQVVYPEKSQCLPGAS (disulfide (positions not given here)) [EpCAM CBD 58]	9.2
GPTQSHYGQCGGKGYNGYFVCSGTTCQWKAKTDSQCLPGAS (disulfide (positions not given here)) [EpCAM CBD 15]	19.3
GPTQSHYGQCGGKGYPGAIVCSGTTCQLVQSWRSQCLPGAS (disulfide (positions not given here)) [EpCAM CBD 63]	8.7
